Source: the kinase profiling compilation of Christmann-Franck et al. (2016)

Experiments:
Assay in all cases: split-luciferase competition binding
RPS6KA4 KD1 (human) = RPS6KA4 KD1 (human) (UniProt O75676); conditions: compound 10.0 µM
RPS6KA5 KD1 (human) = RPS6KA5 KD1 (human) (UniProt O75582); conditions: compound 10.0 µM
RPS6KA2 KD1 (human) = RPS6KA2 KD1 (human) (UniProt Q15349); conditions: compound 10.0 µM
RPS6KA6 KD1 (human) = RPS6KA6 KD1 (human) (UniProt Q9UK32); conditions: compound 10.0 µM
PKN1 (human) = PKN1 (human) (UniProt Q16512); conditions: compound 10.0 µM
PDPK1 (human) = PDPK1 (human) (UniProt O15530); conditions: compound 10.0 µM
PRKCD (human) = PRKCD (human) (UniProt Q05655); conditions: compound 10.0 µM
PRKACB (human) = PRKACB (human) (UniProt P22694); conditions: compound 10.0 µM
AKT2 (human) = AKT2 (human) (UniProt P31751); conditions: compound 10.0 µM
PRKCG (human) = PRKCG (human) (UniProt P05129); conditions: compound 10.0 µM
PRKCH (human) = PRKCH (human) (UniProt P24723); conditions: compound 10.0 µM
AKT3 (human) = AKT3 (human) (UniProt Q9Y243); conditions: compound 10.0 µM
PRKCE (human) = PRKCE (human) (UniProt Q02156); conditions: compound 10.0 µM
RPS6KA3 KD1 (human) = RPS6KA3 KD1 (human) (UniProt P51812); conditions: compound 10.0 µM
SGK2 (human) = SGK2 (human) (UniProt Q9HBY8); conditions: compound 10.0 µM
PRKX (human) = PRKX (human) (UniProt P51817); conditions: compound 10.0 µM
PRKCQ (human) = PRKCQ (human) (UniProt Q04759); conditions: compound 10.0 µM
DMPK (human) = DMPK (human) (UniProt Q09013); conditions: compound 10.0 µM
AKT1 (human) = AKT1 (human) (UniProt P31749); conditions: compound 10.0 µM
AURKB (human) = AURKB (human) (UniProt Q96GD4); conditions: compound 10.0 µM
PRKCI (human) = PRKCI (human) (UniProt P41743); conditions: compound 10.0 µM
AURKA (human) = AURKA (human) (UniProt O14965); conditions: compound 10.0 µM
STK32B (human) = STK32B (human) (UniProt Q9NY57); conditions: compound 10.0 µM
SGK3 (human) = SGK3 (human) (UniProt Q96BR1); conditions: compound 10.0 µM
AURKC (human) = AURKC (human) (UniProt Q9UQB9); conditions: compound 10.0 µM
PRKACA (mouse) = conditions: compound 10.0 µM; accession and sequence are those of the human protein
RPS6KA1 KD1 (human) = RPS6KA1 KD1 (human) (UniProt Q15418); conditions: compound 10.0 µM
Chain of RPS6KA1 KD1 (human) (Q15418 whole entry, looked up): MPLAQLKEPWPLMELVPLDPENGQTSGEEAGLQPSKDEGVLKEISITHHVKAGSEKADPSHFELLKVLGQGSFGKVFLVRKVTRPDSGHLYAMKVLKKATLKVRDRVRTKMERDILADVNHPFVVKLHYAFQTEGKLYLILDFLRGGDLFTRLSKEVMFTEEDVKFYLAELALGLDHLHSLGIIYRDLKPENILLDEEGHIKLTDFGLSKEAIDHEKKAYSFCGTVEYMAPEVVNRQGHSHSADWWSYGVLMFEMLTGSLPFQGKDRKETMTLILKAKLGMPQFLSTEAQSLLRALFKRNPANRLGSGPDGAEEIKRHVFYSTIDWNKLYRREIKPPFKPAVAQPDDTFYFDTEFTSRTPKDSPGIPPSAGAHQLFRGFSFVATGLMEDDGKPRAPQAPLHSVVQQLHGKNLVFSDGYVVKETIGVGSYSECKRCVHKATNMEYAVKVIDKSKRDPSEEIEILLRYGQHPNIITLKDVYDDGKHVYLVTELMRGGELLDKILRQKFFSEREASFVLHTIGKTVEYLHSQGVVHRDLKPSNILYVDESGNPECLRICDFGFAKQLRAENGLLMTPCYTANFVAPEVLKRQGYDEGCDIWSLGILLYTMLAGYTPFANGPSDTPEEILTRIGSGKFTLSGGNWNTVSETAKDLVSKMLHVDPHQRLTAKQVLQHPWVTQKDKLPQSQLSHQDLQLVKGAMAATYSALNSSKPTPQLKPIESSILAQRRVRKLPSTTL

Chain of AURKC (human) (Q9UQB9 whole entry, looked up): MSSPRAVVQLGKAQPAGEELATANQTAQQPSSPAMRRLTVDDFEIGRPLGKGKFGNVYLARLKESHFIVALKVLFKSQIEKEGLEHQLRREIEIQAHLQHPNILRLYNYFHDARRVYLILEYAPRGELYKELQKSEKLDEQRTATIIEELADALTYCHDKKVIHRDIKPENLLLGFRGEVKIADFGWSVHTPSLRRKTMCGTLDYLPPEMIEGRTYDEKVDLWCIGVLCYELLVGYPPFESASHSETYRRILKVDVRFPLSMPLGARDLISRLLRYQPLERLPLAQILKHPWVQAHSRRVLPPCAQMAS
Chain of AKT1 (human) (P31749 whole entry, looked up): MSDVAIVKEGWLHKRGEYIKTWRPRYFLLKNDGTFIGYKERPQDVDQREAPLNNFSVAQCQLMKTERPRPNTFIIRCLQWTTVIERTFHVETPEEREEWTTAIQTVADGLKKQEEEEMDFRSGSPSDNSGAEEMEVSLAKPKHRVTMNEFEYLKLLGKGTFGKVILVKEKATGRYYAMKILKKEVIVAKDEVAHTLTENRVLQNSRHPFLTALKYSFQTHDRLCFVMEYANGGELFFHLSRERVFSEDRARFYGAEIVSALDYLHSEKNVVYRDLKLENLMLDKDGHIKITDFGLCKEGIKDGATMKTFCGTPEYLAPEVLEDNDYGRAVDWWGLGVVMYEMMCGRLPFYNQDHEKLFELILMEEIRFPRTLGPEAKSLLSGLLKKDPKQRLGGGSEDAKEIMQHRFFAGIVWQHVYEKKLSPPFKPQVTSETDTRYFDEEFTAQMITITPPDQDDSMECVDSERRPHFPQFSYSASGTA
Chain of PDPK1 (human) (O15530 whole entry, looked up): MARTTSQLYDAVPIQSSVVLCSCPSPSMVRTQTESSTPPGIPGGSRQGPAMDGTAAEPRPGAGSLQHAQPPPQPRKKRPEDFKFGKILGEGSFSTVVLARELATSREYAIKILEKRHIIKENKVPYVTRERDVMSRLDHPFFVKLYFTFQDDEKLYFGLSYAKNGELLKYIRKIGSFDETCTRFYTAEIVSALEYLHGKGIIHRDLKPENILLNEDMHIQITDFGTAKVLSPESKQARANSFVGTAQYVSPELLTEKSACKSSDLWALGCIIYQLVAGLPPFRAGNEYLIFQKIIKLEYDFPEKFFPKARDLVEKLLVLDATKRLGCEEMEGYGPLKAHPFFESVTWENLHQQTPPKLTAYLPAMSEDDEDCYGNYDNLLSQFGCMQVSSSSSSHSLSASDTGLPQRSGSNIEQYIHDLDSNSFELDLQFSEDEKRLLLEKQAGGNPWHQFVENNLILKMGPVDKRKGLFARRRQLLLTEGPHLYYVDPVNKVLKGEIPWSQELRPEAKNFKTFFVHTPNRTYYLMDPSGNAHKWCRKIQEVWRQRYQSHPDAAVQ
Chain of PRKCI (human) (P41743 whole entry, looked up): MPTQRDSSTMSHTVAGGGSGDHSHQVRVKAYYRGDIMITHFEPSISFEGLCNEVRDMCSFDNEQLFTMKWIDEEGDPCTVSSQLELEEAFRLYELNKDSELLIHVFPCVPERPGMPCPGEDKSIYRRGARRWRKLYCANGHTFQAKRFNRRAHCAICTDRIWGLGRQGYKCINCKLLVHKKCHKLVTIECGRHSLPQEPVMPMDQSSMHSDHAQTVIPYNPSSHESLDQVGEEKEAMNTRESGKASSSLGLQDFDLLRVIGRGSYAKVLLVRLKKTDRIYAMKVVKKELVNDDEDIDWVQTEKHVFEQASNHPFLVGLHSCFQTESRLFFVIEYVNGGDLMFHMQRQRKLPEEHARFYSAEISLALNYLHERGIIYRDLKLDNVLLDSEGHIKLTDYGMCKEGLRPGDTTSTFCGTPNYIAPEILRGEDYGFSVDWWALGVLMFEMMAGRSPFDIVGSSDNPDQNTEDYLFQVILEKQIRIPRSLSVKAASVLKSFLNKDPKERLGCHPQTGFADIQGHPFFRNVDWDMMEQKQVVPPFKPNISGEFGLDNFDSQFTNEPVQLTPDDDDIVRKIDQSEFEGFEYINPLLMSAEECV
Chain of DMPK (human) (Q09013 whole entry, looked up): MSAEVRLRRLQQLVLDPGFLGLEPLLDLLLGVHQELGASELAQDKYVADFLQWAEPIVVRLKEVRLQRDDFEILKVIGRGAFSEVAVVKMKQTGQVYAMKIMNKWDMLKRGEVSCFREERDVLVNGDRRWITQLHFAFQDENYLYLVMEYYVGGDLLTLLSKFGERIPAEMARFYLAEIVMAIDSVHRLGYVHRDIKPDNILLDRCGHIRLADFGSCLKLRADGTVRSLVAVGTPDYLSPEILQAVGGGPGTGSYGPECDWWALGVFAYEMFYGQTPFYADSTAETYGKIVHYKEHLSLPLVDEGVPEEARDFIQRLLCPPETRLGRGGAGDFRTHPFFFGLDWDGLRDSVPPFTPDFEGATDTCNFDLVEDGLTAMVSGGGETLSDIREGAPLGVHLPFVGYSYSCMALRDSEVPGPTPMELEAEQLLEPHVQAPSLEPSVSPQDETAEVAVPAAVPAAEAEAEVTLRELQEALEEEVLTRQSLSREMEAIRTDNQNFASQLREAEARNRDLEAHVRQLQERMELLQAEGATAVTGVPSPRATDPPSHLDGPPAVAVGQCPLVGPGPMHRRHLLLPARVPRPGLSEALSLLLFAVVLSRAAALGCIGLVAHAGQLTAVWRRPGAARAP
Chain of AURKB (human) (Q96GD4 whole entry, looked up): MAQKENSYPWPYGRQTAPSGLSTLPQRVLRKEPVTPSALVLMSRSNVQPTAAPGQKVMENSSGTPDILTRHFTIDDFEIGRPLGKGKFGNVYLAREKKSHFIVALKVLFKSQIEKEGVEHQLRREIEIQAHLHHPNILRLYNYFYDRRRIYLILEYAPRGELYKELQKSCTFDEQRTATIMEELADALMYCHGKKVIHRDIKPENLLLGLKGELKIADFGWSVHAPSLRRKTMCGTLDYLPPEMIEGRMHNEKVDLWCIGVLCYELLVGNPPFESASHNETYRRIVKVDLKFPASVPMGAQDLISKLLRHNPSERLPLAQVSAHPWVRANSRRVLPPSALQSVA
Chain of PRKX (human) (P51817 whole entry, looked up): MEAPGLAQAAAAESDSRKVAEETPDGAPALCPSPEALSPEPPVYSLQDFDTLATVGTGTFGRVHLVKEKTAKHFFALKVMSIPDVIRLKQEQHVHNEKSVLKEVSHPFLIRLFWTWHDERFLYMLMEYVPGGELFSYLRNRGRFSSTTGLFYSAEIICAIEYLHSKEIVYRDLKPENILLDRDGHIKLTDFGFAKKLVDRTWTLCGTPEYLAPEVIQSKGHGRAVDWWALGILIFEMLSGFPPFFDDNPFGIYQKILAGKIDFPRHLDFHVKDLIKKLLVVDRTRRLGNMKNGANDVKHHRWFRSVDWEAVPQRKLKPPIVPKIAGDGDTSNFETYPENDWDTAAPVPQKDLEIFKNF
Chain of PKN1 (human) (Q16512 whole entry, looked up): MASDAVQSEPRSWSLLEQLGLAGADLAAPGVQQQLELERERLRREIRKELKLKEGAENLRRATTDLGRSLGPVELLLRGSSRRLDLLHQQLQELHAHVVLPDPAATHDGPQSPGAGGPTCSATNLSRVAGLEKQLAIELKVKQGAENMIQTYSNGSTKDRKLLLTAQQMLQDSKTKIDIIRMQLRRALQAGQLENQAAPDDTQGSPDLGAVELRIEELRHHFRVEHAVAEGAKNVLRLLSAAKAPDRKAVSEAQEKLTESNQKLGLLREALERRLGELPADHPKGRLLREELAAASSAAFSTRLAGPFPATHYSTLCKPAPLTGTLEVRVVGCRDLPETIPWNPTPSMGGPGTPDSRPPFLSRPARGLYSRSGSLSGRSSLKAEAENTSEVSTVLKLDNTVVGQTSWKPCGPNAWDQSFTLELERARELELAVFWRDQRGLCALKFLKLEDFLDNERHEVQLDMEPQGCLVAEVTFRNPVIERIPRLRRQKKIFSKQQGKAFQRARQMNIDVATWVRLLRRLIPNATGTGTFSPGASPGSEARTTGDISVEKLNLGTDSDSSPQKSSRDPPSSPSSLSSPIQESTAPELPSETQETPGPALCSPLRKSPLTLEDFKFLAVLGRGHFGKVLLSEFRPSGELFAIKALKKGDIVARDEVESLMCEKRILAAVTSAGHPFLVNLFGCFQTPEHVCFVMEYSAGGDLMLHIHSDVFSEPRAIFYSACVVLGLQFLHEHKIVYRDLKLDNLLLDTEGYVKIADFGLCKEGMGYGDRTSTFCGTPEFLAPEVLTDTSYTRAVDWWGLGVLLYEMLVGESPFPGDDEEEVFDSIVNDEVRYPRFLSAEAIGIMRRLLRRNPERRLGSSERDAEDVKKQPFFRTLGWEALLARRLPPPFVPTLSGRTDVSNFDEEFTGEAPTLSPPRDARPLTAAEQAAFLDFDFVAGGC

For `Cn1cnc2c(NCc3ccccc3)nc(NCCO)nc21`, the inhibition (RPS6KA4 KD1 (human)) was 0%, the inhibition (RPS6KA5 KD1 (human)) was 0% and the inhibition (RPS6KA2 KD1 (human)) was 0%. The inhibition (RPS6KA6 KD1 (human)) was 0%, the inhibition (PKN1 (human)) was 6% and the inhibition (PDPK1 (human)) was 0%. The inhibition (PRKCD (human)) was 3%, the inhibition (PRKACB (human)) was 0% and the inhibition (AKT2 (human)) was 0%. It also gave an inhibition (PRKCG (human)) of 0%, an inhibition (PRKCH (human)) of 0% and an inhibition (AKT3 (human)) of 0%. For the same compound, the inhibition (PRKCE (human)) was 0%, the inhibition (RPS6KA3 KD1 (human)) was 0% and the inhibition (SGK2 (human)) was 0%. It also gave an inhibition (PRKX (human)) of 7%, an inhibition (PRKCQ (human)) of 0% and an inhibition (DMPK (human)) of 0%. The inhibition (AKT1 (human)) was 5%, the inhibition (AURKB (human)) was 4% and the inhibition (PRKCI (human)) was 0%. It also gave an inhibition (AURKA (human)) of 0%, an inhibition (STK32B (human)) of 0% and an inhibition (SGK3 (human)) of 0%. For the same compound, the inhibition (AURKC (human)) was 0%, the inhibition (PRKACA (mouse)) was 5% and the inhibition (RPS6KA1 KD1 (human)) was 0%.

`Cc1[nH]c(/C=C2\C(=O)Nc3ccc(S(=O)(=O)Cc4c(Cl)cccc4Cl)cc32)c(C)c1C(=O)N1CCC[C@@H]1CN1CCCC1` was tested, and the inhibition (RPS6KA4 KD1 (human)) was 12%, the inhibition (RPS6KA5 KD1 (human)) was 22% and the inhibition (RPS6KA2 KD1 (human)) was 14%. It also gave an inhibition (RPS6KA6 KD1 (human)) of 25%, an inhibition (PKN1 (human)) of 0% and an inhibition (PDPK1 (human)) of 7%. The inhibition (PRKCD (human)) was 0%, the inhibition (PRKACB (human)) was 13% and the inhibition (AKT2 (human)) was 0%. The inhibition (PRKCG (human)) was 12%, the inhibition (PRKCH (human)) was 12% and the inhibition (AKT3 (human)) was 0%. The inhibition (PRKCE (human)) was 7%, the inhibition (RPS6KA3 KD1 (human)) was 13% and the inhibition (SGK2 (human)) was 2%. For the same compound, the inhibition (PRKX (human)) was 7%, the inhibition (PRKCQ (human)) was 0% and the inhibition (DMPK (human)) was 9%. For the same compound, the inhibition (AKT1 (human)) was 8%, the inhibition (AURKB (human)) was 33% and the inhibition (PRKCI (human)) was 7%. For the same compound, the inhibition (AURKA (human)) was 19%, the inhibition (STK32B (human)) was 23% and the inhibition (SGK3 (human)) was 0%. For the same compound, the inhibition (AURKC (human)) was 39%, the inhibition (PRKACA (mouse)) was 1% and the inhibition (RPS6KA1 KD1 (human)) was 32%.

`C/C(O)=C(\C#N)C(=O)Nc1cc(Br)ccc1Br` was tested, and the inhibition (RPS6KA4 KD1 (human)) was 0%, the inhibition (RPS6KA5 KD1 (human)) was 0% and the inhibition (RPS6KA2 KD1 (human)) was 0%. For the same compound, the inhibition (RPS6KA6 KD1 (human)) was 0%, the inhibition (PKN1 (human)) was 0% and the inhibition (PDPK1 (human)) was 0%. For the same compound, the inhibition (PRKCD (human)) was 0%, the inhibition (PRKACB (human)) was 0% and the inhibition (AKT2 (human)) was 0%. For the same compound, the inhibition (PRKCG (human)) was 0%, the inhibition (PRKCH (human)) was 0% and the inhibition (AKT3 (human)) was 0%. For the same compound, the inhibition (PRKCE (human)) was 0%, the inhibition (RPS6KA3 KD1 (human)) was 0% and the inhibition (SGK2 (human)) was 0%. For the same compound, the inhibition (PRKX (human)) was 0%, the inhibition (PRKCQ (human)) was 0% and the inhibition (DMPK (human)) was 0%. The inhibition (AKT1 (human)) was 0%, the inhibition (AURKB (human)) was 0% and the inhibition (PRKCI (human)) was 0%. It also gave an inhibition (AURKA (human)) of 0%, an inhibition (STK32B (human)) of 0% and an inhibition (SGK3 (human)) of 0%. The inhibition (AURKC (human)) was 0%, the inhibition (PRKACA (mouse)) was 7% and the inhibition (RPS6KA1 KD1 (human)) was 0%.

With `O=C(Nc1cc(C(F)(F)F)cc(C(F)(F)F)c1)c1cc(Cl)ccc1O` the inhibition (RPS6KA4 KD1 (human)) was 0%, the inhibition (RPS6KA5 KD1 (human)) was 0% and the inhibition (RPS6KA2 KD1 (human)) was 0%. For the same compound, the inhibition (RPS6KA6 KD1 (human)) was 0%, the inhibition (PKN1 (human)) was 0% and the inhibition (PDPK1 (human)) was 0%. The inhibition (PRKCD (human)) was 0%, the inhibition (PRKACB (human)) was 1% and the inhibition (AKT2 (human)) was 0%. It also gave an inhibition (PRKCG (human)) of 6%, an inhibition (PRKCH (human)) of 8% and an inhibition (AKT3 (human)) of 0%. It also gave an inhibition (PRKCE (human)) of 11%, an inhibition (RPS6KA3 KD1 (human)) of 0% and an inhibition (SGK2 (human)) of 0%. The inhibition (PRKX (human)) was 4%, the inhibition (PRKCQ (human)) was 2% and the inhibition (DMPK (human)) was 3%. For the same compound, the inhibition (AKT1 (human)) was 0%, the inhibition (AURKB (human)) was 9% and the inhibition (PRKCI (human)) was 0%. The inhibition (AURKA (human)) was 0%, the inhibition (STK32B (human)) was 11% and the inhibition (SGK3 (human)) was 1%. The inhibition (AURKC (human)) was 0%, the inhibition (PRKACA (mouse)) was 0% and the inhibition (RPS6KA1 KD1 (human)) was 1%.

In the case of `Oc1ccc(-c2nc(-c3ccc(F)cc3)c(-c3ccncc3)[nH]2)cc1`, the inhibition (RPS6KA4 KD1 (human)) is reported as 0%, the inhibition (RPS6KA5 KD1 (human)) is reported as 0% and the inhibition (RPS6KA2 KD1 (human)) is reported as 0%. It also gave an inhibition (RPS6KA6 KD1 (human)) of 0%, an inhibition (PKN1 (human)) of 0% and an inhibition (PDPK1 (human)) of 0%. It also gave an inhibition (PRKCD (human)) of 7%, an inhibition (PRKACB (human)) of 0% and an inhibition (AKT2 (human)) of 0%. It also gave an inhibition (PRKCG (human)) of 0%, an inhibition (PRKCH (human)) of 0% and an inhibition (AKT3 (human)) of 0%. For the same compound, the inhibition (PRKCE (human)) was 0%, the inhibition (RPS6KA3 KD1 (human)) was 0% and the inhibition (SGK2 (human)) was 0%. The inhibition (PRKX (human)) was 13%, the inhibition (PRKCQ (human)) was 0% and the inhibition (DMPK (human)) was 0%. It also gave an inhibition (AKT1 (human)) of 5%, an inhibition (AURKB (human)) of 0% and an inhibition (PRKCI (human)) of 0%. It also gave an inhibition (AURKA (human)) of 0%, an inhibition (STK32B (human)) of 11% and an inhibition (SGK3 (human)) of 0%. For the same compound, the inhibition (AURKC (human)) was 21%, the inhibition (PRKACA (mouse)) was 11% and the inhibition (RPS6KA1 KD1 (human)) was 0%.

Work on `CCN(CC)CCCCN1c2ccccc2Oc2ccc(Cl)cc21` yielded an inhibition (RPS6KA4 KD1 (human)) of 0%, an inhibition (RPS6KA5 KD1 (human)) of 0% and an inhibition (RPS6KA2 KD1 (human)) of 7%. For the same compound, the inhibition (RPS6KA6 KD1 (human)) was 0%, the inhibition (PKN1 (human)) was 6% and the inhibition (PDPK1 (human)) was 0%. It also gave an inhibition (PRKCD (human)) of 0%, an inhibition (PRKACB (human)) of 0% and an inhibition (AKT2 (human)) of 0%. It also gave an inhibition (PRKCG (human)) of 0%, an inhibition (PRKCH (human)) of 0% and an inhibition (AKT3 (human)) of 0%. For the same compound, the inhibition (PRKCE (human)) was 3%, the inhibition (RPS6KA3 KD1 (human)) was 0% and the inhibition (SGK2 (human)) was 0%. For the same compound, the inhibition (PRKX (human)) was 7%, the inhibition (PRKCQ (human)) was 4% and the inhibition (DMPK (human)) was 7%. It also gave an inhibition (AKT1 (human)) of 0%, an inhibition (AURKB (human)) of 8% and an inhibition (PRKCI (human)) of 2%. The inhibition (AURKA (human)) was 0%, the inhibition (STK32B (human)) was 0% and the inhibition (SGK3 (human)) was 0%. It also gave an inhibition (AURKC (human)) of 16%, an inhibition (PRKACA (mouse)) of 0% and an inhibition (RPS6KA1 KD1 (human)) of 0%.
